PMC6479099, “Aminoguanidines: New leads for treatment of Giardia duodenalis infection” (International Journal for Parasitology: Drugs and Drug …, 2019)
≈ marks a conversion by molar mass, not a printed value. Where two headings read alike, the source gives them in different places.

Assays:
[1] = system: Giardia trophozoites (BAH2c2); assay: Proliferation of Giardia trophozoites (resazurin, 96 h); type: cell-based, Giardia duodenalis; details: read-out: IC50prol, Assemblage A (50% inhibition in the proliferation assay)
Procedure: The effect of the compounds on the proliferation of Giardia trophozoites was determined following the protocol outlined above, with the following modifications. The number of trophozoites was decreased to 1000 per well and the cells were incubated in the presence of each compound for 96 h at 37 °C.
(§1) The IC50 of each compound was determined using a resazurin reduction assay, which measures the metabolic activity of cells, using the log (inhibitor) vs. normalised response – variable slope function in Graphpad Prism. The compounds were tested against an assemblage A (BAH2c2, 24 h) and an assemblage B (BAH12, 24 h) isolate (Table 1). […] The effect of the compounds on the proliferation of Giardia trophozoites (BAH2c2) was also determined.

[2] = system: Giardia duodenalis BAH2c2 strain, assemblage A; assay: Resazurin reduction assay, assemblage A isolate; type: cell-based; details: for MLC (minimum lethal concentration), Assemblage A: concentration at which no metabolism of resazurin was observed; for IC50: Giardia duodenalis, 24 h, read-out: IC50, Assemblage A
Procedure: (§2) G. duodenalis (BAH2c2 and BAH12 strain) was cultivated according to the method of Clark and Diamond in Keister's modified TYI-S-33 medium, supplemented with heat inactivated foetal bovine serum (Hyclone™, Thermo Fisher Scientific, Scoresby, Victoria, Australia) at 37 °C in plastic 9 mL screw-capped test tubes (nunc, Thermo Fisher Scientific, Scoresby, Victoria, Australia). Subcultures were performed once a confluent monolayer was observed, approximately 2–3 times per week ([Clark and Diamond, 2002]).
(§3) The in-vitro compound efficacy was determined using a resazurin reduction assay as previously described ([Benere et al., 2007]). The media of confluent cultures was replaced with fresh media and the cultures were placed on ice for 40 min to detach trophozoites. Trophozoites were enumerated using a haemocytometer and 50 000 trophozoites were added to each test well of a 96 well plate. Doubling or tripling dilutions of the test compounds were added to wells beginning at 25 or 50 μM compound concentration (previously prepared in DMSO). Metronidazole and DMSO (vehicle only) were used as controls. Plates were incubated under anaerobic conditions, using anaerobic gas generating sachets, (AnaeroGen, Thermo Fisher Scientific, Scoresby, Victoria, Australia) for 24 h at 37 °C. After incubation the media was removed and replaced with an equal volume of warm PBS. Resazurin (Alamarblue, Thermo Fisher Scientific, Scoresby, Victoria, Australia) was then added at 10% of the total volume of the wells. Plates were further incubated (1.5 h) for colour development and absorbance read at 570 nm and 630 nm. The percentage resazurin reduction was then calculated using the following formula:((εoxi630 x A570) – (εoxi570 x A630))/((εred570 x C630)-([…])) x 100Where: εoxi630 = 34798, εoxi570 = 80586, A570 = absorbance at 570 nm, A630 = absorbance at 630 nm, εred570 = 155677, εred630 = 5494, C630 = absorbance of negative control well at 630 nm and C570 = absorbance of negative control well at 570 nm.
(§4) For the resazurin reduction assay the mean and standard error of the mean were determined with each assay completed in triplicate. The IC50 was calculated using the log (inhibitor) vs. normalised response – variable slope function in Graphpad Prism. For the adherence assay mean and standard error of the mean were calculated and data analysed using an unpaired t-test, relative to untreated control.
as §1
Absorbance was measured (630 and 570 nm), percent reduction of resazurin calculated and data presented as a percentage of the growth control. Treatment groups are: square - metronidazole; triangle –NCL 099; diamond - robenidine; and circle - NCL 062. Error ± SEM, n = 3. Data represents a typical experiment. Note the break in the x-axis indicates a change in the scale of drug concentration.

giardiasis = system: giardiasis; design: method as in Wright et al., 2003; details: ref Wright et al., 2003; cited from earlier work
AT region of DNA = system: AT region of DNA; design: method as in Nguyen et al., 2002; details: ref Nguyen et al., 2002; cited from earlier work
[3] = system: Giardia duodenalis trophozoites; assay: Modified adherence assay; type: cell-based; details: 4 μM, 5 h exposure
Procedure: (§5) A second screening method, based on counting adherent trophozoites, was developed and used to validate the primary screen method, modified from earlier adherence assay protocols ([Crouch et al., 1986]). The assay was prepared in 24 well plates with plastic coverslips placed in the bottom. Trophozoites were prepared as above by placing on ice and ∼5 × 10^5 cells/mL were added to each well. Drugs prepared in DMSO were added at the required concentration, with the DMSO concentration never exceeding 1%. Assay plates were incubated for 5 h at 37 °C under anaerobic conditions, the media removed and cells adhering to the coverslips were fixed with glutaraldehyde or methanol. Once the coverslips were dry, cells were stained with a Romanowsky stain variant (Rapid stain), fixed to a glass slide and imaged at 10x or 100x magnification. Images (10x magnification) were processed with DotCount v1.2 software (http://reuter.mit.edu/, 2008–2012 ^© Martin Reuter) to count the number of cells present and data analysed using GraphPad Prism version 6.00 for Windows, GraphPad Software, La Jolla California USA, www.graphpad.com. Images (100x magnification) were assessed for obvious morphological changes.
The results for the in vitro drug efficacy studies were analysed using GraphPad Prism version 6.00 for Windows, GraphPad Software, La Jolla California USA, www.graphpad.com. For the resazurin reduction assay the mean and standard error of the mean were determined with each assay completed in triplicate. The IC50 was calculated using the log (inhibitor) vs. normalised response – variable slope function in Graphpad Prism. For the adherence assay mean and standard error of the mean were calculated and data analysed using an unpaired t-test, relative to untreated control.
Fig. 3 Inhibition of adherence of Giardia duodenalis by metronidazole (Mz), robenidine, NCL 062 and NCL 099. Cells were exposed to the compounds for 5 h before staining. Stained cells were imaged at 10x magnification and counted using DotCount™ software. Each assay was completed in triplicate and 5 images taken per sample. Top. Number of adherent trophozoites after exposure to 4 μM of each compound for 5 h; Bottom. An example of the Dotcount software identifying trophozoites at higher magnification. Left: stained trophozoites, Right: highlighted trophozoites identified by the Dotcount software. Each highlighted cell is counted individually. Error ± SEM. * p-value <0.05, ** p-value <0.0001.

[4] = system: Giardia duodenalis BAH2c2 strain, assemblage A; assay: Resazurin reduction assay, assemblage A isolate; type: cell-based
[5] = system: G. duodenalis trophozoites; assay: Giardia recovery assay; type: cell-based, Giardia duodenalis; details: 5 h at 5x the IC50, counts at 24 and 48 h post exposure
Procedure: G. duodenalis trophozoites were harvested on ice as outlined above and 5 × 10^5 cells/mL were added to 1.5 mL centrifuge tubes. […] After exposure cells were collected by placing tubes on ice for 40 min followed by centrifugation at 900×g for 5 min. The supernatant was removed and cells were resuspended in 8 mL of fresh media (in a 9 mL culture tube). The number of trophozoites was counted using a haemocytometer and cells were incubated for 48 h with cell numbers being determined at 24 and 48 h.
Fig. 7 Recovery assay of Giardia duodenalis exposed to robenidine and metronidazole. Giardia trophozoites were exposed to robenidine or metronidazole for 5 h at 5x the IC50. Key: closed circle – growth control, triangle – metronidazole, square – robenidine, open circle – NCL 062, diamond – NCL 099. Cell numbers were determined at 24 and 48 h post exposure. Error ± SD.

[6] = system: Giardia duodenalis BAH12, assemblage B; assay: Resazurin reduction assay, assemblage B isolate; type: cell-based; details: BAH12, 24 h; for IC50: Giardia duodenalis, resazurin metabolic assay
Procedure: as §2, §3, §4, §1

[7] = In vitro cytotoxicity, murine macrophage cells; details: mouse, RAW 264.7 murine macrophage cells
Giardia trophozoites = assay: Morphology of stained trophozoites at 100x magnification; type: cell-based, Giardia duodenalis
Procedure: as §5
Fig. 4 Morphological effect of Robenidine and NCL 099 on Giardia trophozoites. Giardia trophozoites were exposed to each compound for 24 h before fixation with glutaraldehyde and staining following the Diff quik protocol. A-control cells, B – cells treated with metronidazole (IC50, 2 μM), C- robendine treated cells (IC50, 2 μM), D – NCL 099 treated cells (IC50, 3 μM), E − NCL 099 treated cells (2 x IC50).

[8] = BAH2c2, 1000 trophozoites per well
[9] = BAH2c2, 24 h, resazurin metabolic assay

| Compound | MLC (minimum lethal concentration), Assemblage A ([2]; BAH2c2, 24 h) [µM] | Effect on adherence of trophozoites [3] | IC50 [1, 8] [nM] | Recovery of trophozoites after short-term exposure [5] | IC50 [2, 9] [nM] | Treatment success rate (giardiasis) | MLC, Assemblage B [6] [µM] | IC50 [6] [nM] | GI50 [7] [nM] | also measured |
| --- | --- | --- | --- | --- | --- | --- | --- | --- | --- | --- |
| CCCSc1ccc2nc(NC(=O)OC)[nH]c2c1 [Albendazole] | 0.02 to 0.07 | – | – | – | – | – | – | – | – | IC50 [1]: 800 ± 700 nM; IC50 [2]: < 20 nM; Reported efficacy (giardiasis): 62–95% |
| Cl.Cl.Cl.N=C(N)c1cccc(/C=N/N=C(\N)N/N=C/c2cccc(C(=N)N)c2)c1 [CGP 40215A] | – | – | – | – | – | – | – | – | – | Binding to the AT region of DNA (AT region of DNA): strong bond |
| Cc1ncc([N+](=O)[O-])n1CCO [Metronidazole] | 2.8 (≈ 0.479 µg/mL) | no significant effect on cell adherence | 1700 ± 2000 | did not have any permanent effects | 2000 ± 1000 | 80–90% | 16.6 (≈ 2.84 µg/mL) | 3800 ± 500 | – | Time required to exhibit inhibitory activity [4]: 24 h |
| C/C(=N\NC(=N)N/N=C(\C)c1ccc(Cl)cc1)c1ccc(Cl)cc1.Cl [NCL 062, (E)-N'-((E)-1-(4-chlorophenyl)ethylidene)-2-(1-(4-chlorophenyl)ethylidene)hydrazine-1-carboximidhydrazide hydrochloride] | 0.9 | complete inhibition of adherence | 2000 ± 1300 | unable to recover | 800 ± 600 | – | 3.1 | 1800 ± 0.8 | 4000 | – |
| CC(C)(C)c1ccc(/C=N/NC(=N)N/N=C/c2ccc(C(C)(C)C)cc2)cc1.Cl [NCL 099, N′,2-bis((E)-4-(tert-butyl)benzylidene)hydrazine-1-carboximidhydrazide hydrochloride] | 8.3 | significantly affected adherence of trophozoites at 4 μM, but did not completely inhibit adherence | 11100 ± 800 | able to recover after short-term exposure but growth was slower | 3000 ± 300 | – | 5.5 | 3300 ± 200 | 7300 | Morphological effect on stained trophozoites at 2 x the IC50 (Giardia trophozoites; 2 x IC50, 100 x magnification): disintegration of the cell membrane; Morphological effect on stained trophozoites at the IC50 (Giardia trophozoites; at IC50, 100 x magnification): decrease in the membrane stain intensity |
| CCS(=O)(=O)CCn1c([N+](=O)[O-])cnc1C [tinidazole] | – | – | – | – | – | 80–90% | – | – | – | – |
